Experimental data reported in patent publication EP1401829B1, “NOVEL HETEROCYCLIC ANTIBACTERIAL COMPOUNDS” (Microbiotix, Inc., priority 2001, dated 2002).
In brackets after ≈: the same amount, converted by molar mass. Like-named read-outs stand apart in the source and are kept apart here.

What was measured:
[1] = system: S.aureus (Smith); experiment: Minimal Inhibitory Concentration (MIC) determination, 96 well plates; assay type: cell-based, Staphylococcus aureus; settings: Staphylococcus aureus
Outline: (§1)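 Broth growth in Heart-Brain Infusion medium, seeded at about 1x10^5 CFU/ml, 16 to 18 hours at 37°C. Growth read at OD 600 nm as percent of untreated control; five concentrations per drug, five data points each, MIC reported in µg/ml.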

[2] = system: MRSA 1123; experiment: MIC against clinically relevant strains; assay type: cell-based; settings: Staphylococcus aureus, methicillin resistant S. aureus strain
Method: (§2) The following methods were used to characterize representative compounds. Minimal Inhibitory Concentration (MIC) determinations. MIC values were determined in 96 well plates, with bacterial growth monitored at OD 600 nm in 200µl following an initial bacterial seeding at approximately 1x10^5 colony forming units (CFU)/ml. Each drug is evaluated at five concentrations, with five data points at each dilution. MIC values (µg/ml) were determined against actively growing cultures in Heart-Brain Infusion (HBI) medium. Cell growth in cultures supplemented with a test compound was calculated as a percent of control at OD 600 nm after 16 to 18 hours at 37°C. This plate format conserves test compound and provides precise, quantitative data with low standard deviation determinations. Polymerase IIIC (Pol IIIC) assay. DNA polymerase activity (or inhibition thereof) was measured in a 96-well plate format. B. subtilis Pol IIIC was isolated as described by Hammond and Brown (Protein Expr. Purif., 3: 65-70 (1992)). Each 25 µl assay contained 30 mM Tris, pH 7.5, 10 mM magnesium acetate, 4 mM dithiothreitol, 20% glycerol, with 25 µM dATP, dCTP, dGTP and 10 µM dTTP (^3H-labelled at 1.44 Ci/mmole) and 0.4 mg/ml activated calf thymus DNA as substrates, as described previously (see Barnes et al, op. cit). Assays were initiated by the addition of 0.025 to 0.06 units of enzyme 1 unit is the amount required to incorporate 250 pmoles of [^3H] dTMP in a standard assay), incubated for 10 minutes at 30°C and terminated by the addition of 200 µl of cold 10% trichloroacetic acid (TCA),10 mM sodium pyrophosphate. Precipitated labeled DNA was collected on glass fiber filter plates, washed, dried, and counted in a liquid scintillation counter. Determination of Ki values. DNA polymerase activity was measured in a 96-well plate format in the absence of dGTP or dATP, depending on the structure of the test compound. Each 25 µl assay contained 30 mM Tris, pH 7.5, 10 mM magnesium acetate, 4 mM dithiothreitol, 20% glycerol, with 25 µM dATP, dCTP, and 10 µM dTTP (^3H-labelled at 1.44 Ci/mmole) and 0.4 mg/ml activated calf thymus DNA as substrates, as described previously. To each well were added 2 µl of compound solution to give final concentrations ranging from 20 - 0.027 µg/ml in the assay. Assays were initiated by the addition of 0.025 to 0.06 units of enzyme (1 unit is the amount required to incorporate 250 pmoles of [^3H] dTMP in a standard assay), incubated for 10 minutes at 30 °C and terminated by the addition of 200 µl of cold 10% trichloroacetic acid, 10 mM sodium pyrophosphate. Precipitated labeled DNA was collected on glass fiber filter plates, washed, dried, and counted in a liquid scintillation counter. Ki is the concentration of test compound that reduces the control polymerase IIIC activity by 50 percent.
(§3) Compounds were also tested for antibacterial activity against certain clinically relevant strains, e.g., methicillin sensitive (MSSA) and methicillin resistant (MRSA) strains of Staphylococcus aureus.

[3] = system: MRSA1094; experiment: MIC against clinically relevant strains; assay type: cell-based; settings: Staphylococcus aureus; methicillin resistant S. aureus strain
Method: as §2, §3

[4] = system: MRSA1132; experiment: MIC against clinically relevant strains; assay type: cell-based; settings: Staphylococcus aureus; methicillin resistant S. aureus strain
Method: as §2, §3

[5] = system: E. fecalis; experiment: Minimal Inhibitory Concentration (MIC) determination, 96 well plates; assay type: cell-based, Enterococcus fecalis; settings: Enterococcus; HBI medium, 16 to 18 hours at 37°C; read-out: MIC (µg/ml) E. fecalis
Outline: as §1

[6] = HBI medium, 16 to 18 hours at 37°C, read-out: MIC (µg/ml) S.aureus (Smith)
[7] = table of MSSA/MRSA strains, read-out: MIC (µg/ml) S. aureus (Smith)

Row | Structure (SMILES) | MIC [1, 6] | MIC [1, 7] | MIC [2] | MIC [3] | MIC [4] | MIC [5]
1 | CCc1cc(Nc2cc(=O)n(CCCCN3CCN(c4cc5c(cc4F)c(=O)c(C(=O)O)cn5C4CC4)CC3)c(=O)[nH]2)ccc1C [Compound 2, 3-{4-[1-(1-cyclopropyl-3-carboxy-4-oxo-6-fluoro-7-quinolyl)-4-piperazinyl]butyl}-6-(3-ethyl-4-methylanilino)uracil] | 0.313 µg/mL (≈ 0.496 µM) | 0.313 µg/mL (≈ 0.496 µM) | 0.625 µg/mL (≈ 0.991 µM) | 0.625 µg/mL (≈ 0.991 µM) | 0.625 µg/mL (≈ 0.991 µM) | 1.25 µg/mL (≈ 1.98 µM)
2 | CCc1cc(Nc2cc(=O)n(CCCCN3CCN(c4cc5c(cc4F)c(=O)c(C(=O)O)cn5C4CC4)CC3)c(=O)[nH]2)ccc1C.CS(=O)(=O)O [Compound 10, 3-{4-[1-(1-cyclopropyl-3-carboxy-4-oxo-6-fluoro-7-quinolyl)-4-piperazinyl]butyl}-6-(3-ethyl-4-methylanilino)uracil methanesulfonate] | 0.625 µg/mL | 0.625 µg/mL | 1.25 µg/mL | 1.25 µg/mL | 0.625 µg/mL | 1.25 µg/mL
3 | CCc1cc(Nc2cc(=O)n(CCCCN3CCN(c4c(F)cc5c(=O)c(C(=O)O)cn(C6CC6)c5c4F)CC3C)c(=O)[nH]2)ccc1C (stereo not drawn) [Compound 70, 3-{4-[1-(1-cyclopropyl-3-carboxy-4-oxo-6,8-difluoro-7-quinolyl)-3-methyl-4-piperazinyl]butyl}-6-(3-ethyl-4-methylanilino)uracil] | 0.156 µg/mL (≈ 0.235 µM) | 0.21 µg/mL (≈ 0.317 µM) | 0.94 µg/mL (≈ 1.42 µM) | 0.94 µg/mL (≈ 1.42 µM) | 0.31 µg/mL (≈ 0.468 µM) | 0.95 µg/mL (≈ 1.43 µM)
